Measurements: US20070202079A1, “Therapeutic compositions and methods useful in modulating protein tyrosine phosphatases” (priority 2006, published 2007)

Assays:
Format in all cases: cell-based, human
SK-N-SH = SK-N-SH cell growth, MTT; details: 100 μg/ml, day 6
Description: (§1) NIH3T3 (Yi, et al., Blood 85, 87 (1995)), WM9 (Forsberg, et al., Proc. Nat. Acad Sci. USA 90, 393 (1993)), DU145 (Mickey, et al., Cancer Res. 37, 4049 (1977)), LoVo (Drewinko, et al., Cancer Res. 36, 467 (1976)), HEY (Buick, et al., Cancer Res. 45, 3668 (1985)), U251 (Yoshida, et al., Cancer 50, 410 (1982)), A549 (Giard, et al., J. Natl. Cancer Inst. 51, 1417 (1973)) and SK-N-SH (Helson, et al., Cancer Res. 35, 2594 (1975)) cell lines have been described and were cultured in RPMI 1640 supplemented with 10% fetal calf serum (FCS). For measurement of sodium stibogluconate effects on cell growth in vitro, cells were cultured in the absence (−) or presence (+) of various amounts of sodium stibogluconate for 6 days with viable cells quantified by MTT assays (Mosmann, J. Immunol. Methods 65, 55 (1983)). Percentages of growth inhibition by sodium stibogluconate were calculated (.+−.x%).

[1] = system: Stat1 tyrosine phosphorylation; assay: IFN-alpha-induced Stat1 tyrosine phosphorylation, Western blotting
Description: For induction of Stat1 tyrosine phosphorylation by IFN-alpha in the absence or presence of sodium stibogluconate, cells grown in 10% FCS RPMI 1640 medium at 37° C. were stimulated with IFN-alpha (50 u/ml) for various time points and treated with or without sodium stibogluconate for 5 minutes prior to termination by lysing the cells in cold lysis buffer (1% NP-40; 50 mM Tris, pH 7.4; 100 mM NaCl; 1 mM EDTA, 10% glycerol, 10 mM sodium molybdic acid and 4 mM AEBSF).
Cell lysates were prepared by lysing cells in cold lysis buffer for 30 min and cleared by centrifuging at 14,000 rpm at 4° C. for 15 min. For SDS-PAGE, cell lysates were mixed with equal volume of 2×SDS-PAGE sample buffer, heated at 90° C. for 5 min and separated in 10% SDS-PAGE gels. Cellular proteins in SDS-PAGE gels were transferred to nitrocellulose membrane (Schleicher & Schuell, Keene, N.H.), blocked in 5% milk, probed with antibodies and detected by using an enhanced chemiluminescence kit (ECL, Amersham, Arlington Heights, Ill.).

DU145R cells = assay: DU145R cell growth, MTT; details: day 6 culture
Description: DU145 cells were cultured in the presence of sodium stibogluconate (100 μg/ml) in 48 well plates for 3 weeks. Cells from a well containing a single colony were transferred to flasks, cultured in sodium stibogluconate-free medium for 3 weeks and used as DU145R cells for further characterization. Growth of DU145R cells in the absence or presence of sodium stibogluconate in day 6 culture was determined by MTT assays. cDNAs of the coding region of PRLs were derived by RT-PCR from DU145 and DU145R cells and sequenced using primers described below.

DU145 cells = assay: DU145 cell growth, MTT
Description: For cell proliferation assays, cells were grown in 10% FCS culture medium containing various amounts of IFNs and/or sodium stibogluconate in 96 well plates and cultured at 37° C. for 3 or 6 days as indicated. The numbers of viable cells in proliferation assays were determined by MTT assays as described in Phatak et al., J. Immunol. 167, 3391 (2001).
as §1

Hey = assay: HEY cell growth, MTT; details: 100 μg/ml, day 6
Description: as §1

NB4 cells [2] = assay: NB4 differentiation (NBT reduction, CD11b); details: 6 days with drug, washed, 6 days without
Description: Differentiation of AML cell lines was assessed by their ability to produce superoxide as measured by reduction of NBT to formazan and by analysis of expression of CD11b surface marker by flow cytometry. For NBT reduction, each cell suspension was mixed with an equal volume of solution containing 1 mg/ml of NBT (Sigma) and 2.5 μg/ml of TPA for 30 minutes at 37° C. After incubation, cells containing the purple formazan deposits and cells devoid of NBT-reducing activity (white cells) in each sample were determined by counting 200 cells under microscope. Data is expressed as a percentage based on the following ratio: purple cells/purple+white cells. For analysis of cell surface antigens, cells were exposed to phycoerythrin (PE)-conjugated murine anti-human CD11b (DAKO Corp., Carpinteria, Calif.). Analysis of fluorescence was performed on a FACScan flow cytometer (Beckton Dickinson, Mountain View, Calif.).

NB4 cells [3] = assay: NB4 growth, cell cycle and Annexin V
Description: The NB4 cell line (Lanotte et al., Blood 77, 1080 (1991)) was a gift from Dr. Dan Lindner of the Cleveland Clinic Foundation. […] and U937 cell lines were purchased from American Type Culture Collection (Rockville, Md.). These human […] cell lines were maintained in RPMI 1640 medium supplemented with 10% fetal calf serum (FCS). For cell proliferation assays, cells were cultured at 37° C. in 10% FCS medium containing various amounts of sodium stibogluconate for 6 days. The cell numbers in the cultures were determined by an MTT assay as described previously in Mosmann, J. Immunol. Methods 65, 55 (1983).
The cell cycle was analyzed by flow cytometry after 3 days of culture of NB4 cells in the absence or presence of sodium stibogluconate (250 μg/ml) or ATRA (1 μM). Briefly, the cells were fixed in cold ethanol and incubated for 30 minutes at 4° C. in the dark with a solution of […] propidium iodide, 1 mg/ml RNase and 0.1% NP-40. Analysis was performed immediately after staining using the CELLFIT program (Becton Dickinson, Mountain View, Calif.).
Annexin V staining of exposed membrane phospholipid phosphatidylserine (PS) was done using the Annexin V assay kit (Pharmingen, San Diego, Calif.). Briefly, NB4 cells were cultured in the 10% FCS RPMI 1640 medium in the absence or presence of sodium stibogluconate (250 μg/ml) or ATRA (1 μM) for 3 days. Cells were then washed in PBS twice and stained in binding buffer (10 mM Hepes, pH 7.4; 140 mM NaCl; 2.5 mM CaCl2) containing Annexin V-FITC and propidium iodide for 15 min. The reaction was stopped by adding 10 volumes of binding buffer and analyzed by FACS (Becton Dickinson Facsvantage).

Which “cell killing of SK-N-SH” value (SK-N-SH) does the source give for `O.O.O.O.O.O.O.O.O.O=C([O-])[C@@H]1[O][Sb]2([O-])([O][Sb]34([OH])[O][C@H]([C@H](O)CO)[C@H]([O]3)[C@H](C(=O)[O-])[O]4)[O][C@H]([C@H](O)CO)[C@@H]1[O]2.[Na+].[Na+].[Na+]` [sodium stibogluconate] here?
The value was “near-complete cell killing”.

What about the “IFN-alpha-induced Stat1 tyrosine phosphorylation” value ([1]; DR cells, 10 μg/ml, 30 min post-stimulation) of the same molecule?
The value was “approximately two folds greater than control”.

And the “Stat1 tyrosine phosphorylation by drug itself” value ([1]; DR cells, absence of IFN-alpha)?
The value was “failed to induce Stat1 tyrosine phosphorylation”.

What about the “IFN-alpha-induced Stat1 tyrosine phosphorylation” value ([1]; DU145, 5 hours post-stimulation) of the same molecule?
The value was “Enhanced Stat1 tyrosine phosphorylation”.

What about the “IFN-alpha-induced Stat1 tyrosine phosphorylation” value ([1]; WM9, 5 hours post-stimulation) of the same molecule?
Its value is “Enhanced Stat1 tyrosine phosphorylation”.

And the “IFN-alpha-induced Stat1 tyrosine phosphorylation” value ([1]; WM35)?
Its value is “failed to enhance”.

What about the “IFN-alpha-induced Stat1 tyrosine phosphorylation” value ([1]; WiT49-N1) of the same molecule?
The value was “failed to enhance”.

What about the “growth of DU145R versus parental DU145 in presence of drug” value (DU145R cells) of the same molecule?
Its value is “growth resistance”.

And the “DU145 cells, single agent” value (DU145 cells; 50 μg/ml and 100 μg/ml, day 6 culture)?
The value was “killed all cells”.

What about the “cell killing of DU145” value (DU145 cells; 100 μg/ml, day 6) of the same molecule?
The value was “near-complete cell killing”.

And the “cell killing of Hey” value (Hey)?
Its value is “near-complete cell killing”.

What about the “reversal of NB4 differentiation after drug removal” value (NB4 cells [2]) of the same molecule?
Its value is “not reversed”.

What about the “Annexin V staining of NB4 cells” value (NB4 cells [3]; 250 μg/ml, 6 days) of the same molecule?
Its value is “stained positive by Annexin V”.

And the “proliferation of NB4 cells” value (NB4 cells [3]; 12.5-400 μg/ml)?
The value was “markedly inhibited”.

What about the “cell cycle of NB4 cells” value (NB4 cells [3]; sodium stibogluconate 250 μg/ml or ATRA 1 μM, 3 days) of the same molecule?
Its value is “significant increase of cells at S phase”.
